From patent US20090324682A1 (priority 2004, published 2009)

Assays:
[1] = test system: Human smooth muscle cells (SMC); assay: Proliferation of human smooth muscle cell cultures treated with rhodamine 123 and/or FDG; type: cell-based
Procedure: Human smooth muscle cells (SMC) were treated with rhodamine 123 and/or with FDG.
Three levels of Rhodamine 123 concentration were used first: 0.05, 1 and 2.5 mg/ml.
A combined composition of FDG and Rhodamine at various dosages were evaluated on the same human SMC cultures. The doses (FDG/rhodamine in mg/ml) were as follows: […]

[2] = Maximal tolerated dose of Rhodamine 123 delivered intra-venously in man; type: in vivo; settings: 70 kg patient
Procedure: Because inhibitors of oxidative phorphorylation are extremely toxic to a subject in the doses needed for efficacy via the systemic route, such inhibitors have been largely overlooked for effective treatment of conditions such as cancer. […] It is also known that the maximal tolerated dose of Rhodamine 123 delivered intra-venously in man is 95 mg/m^2. For a 70 kg patient, the maximum dose of systemically delivered rhodamine is about 150 mg. […] There was an accumulation of rhodamine in the prostate of the patients, but it was not sufficient to provoke a significant response.

prostate tumours = settings: maximum non-lethal systemic dose, cited from earlier work

For rhodamine 123, the “concentration enough to stop smooth muscle cell proliferation” value [1] was 5 µg/mL, the “proliferation rates of SMC compared to non rhodamine treated cells” value ([1]; Rhodamine 123 0.05 mg/ml) was 90+21.6% and the “proliferation rates of SMC compared to non rhodamine treated cells” value ([1]; Rhodamine 123 1 mg/ml) was 51.2 ± 10.7%. For the same substance, the “proliferation rates of SMC compared to non rhodamine treated cells” value ([1]; Rhodamine 123 2.5 mg/ml) was 7.3 ± 5.1%, the SMC proliferation ([1]; higher rhodamine concentrations (above 2.5 mg/ml)) was “totally suppressed” and the “maximum dose of systemically delivered rhodamine” value [2] was “about 150 mg”. The “effect on prostate tumours” value (prostate tumours) was “no useful effect” and the “rhodamine in the prostate of the patients” value (prostate tumours; not sufficient to provoke a significant response) was “accumulation”.
